Source: patent publication US12570648B2, “6,7-dihydro-5H-pyrido[2,3-c]pyridazine derivatives and related compounds as Bcl-xL protein inhibitors and pro-apoptotic agents for treating cancer” (LES LABORATOIRES SERVIER, priority 2019, dated 2026)

Tests used:
[1] = molecular target: His-His-(EK)-hsBCLXL(2-197)[N197C] (Homo sapiens (Human), UniProt Q07817, N197C); experiment: Fluorescence quenching assay; type: binding; conditions: 1 nM Cy5-labelled protein, 400 nM PUMA peptide, 2 hours at 23° C.; KI determined from IC50
From the text: Fluorescence quenching assay measures the change in fluorescence intensity of C-terminally Cy5-labelled BCL-xL protein, His-His-(EK)-hsBCLXL(2-197)[N197C] (UniProtKB®
which is linked in C-terminal region to the amino acid X which corresponds to a cysteine labelled on the sulfur with Sulfo-Cyanine5 from Lumiprobe GmbH catalogue number 13380, upon binding of a C-terminally labelled peptide derived from PUMA (UniProtKB® primary accession number Q9BXH1) having an aminoacid sequence (SEQ ID:04): [[…]] which is linked in C-terminal region to the amino acid X′ where X′ is cysteine labelled on the sulfur with TQ5WS from AAT Bioquest catalogue number 2079.
The addition of a compound which binds competitively to the same site as the peptide will result in an increase in the fluorescence intensity of the protein due to displacement of the fluorescence quencher.
An 11-point serial dilution of each compound was prepared in DMSO, the final buffer conditions were 10 mM 4-(2-hydroxyethyl)-1-piperazineethanesulfonic acid [HEPES], 150 mM NaCl, 0.05% Tween 20, pH 7.4 and 5% DMSO. The final protein concentration in the assay was 1 nM with the peptide present at 400 nM. The experiments were incubated for 2 hours at 23° C. before fluorescence intensity was measured on a Biotek SynergyNeo plate reader (Excitation 620 nm, emission 680 nm). […] The K1 values were determined from the IC50 values according to Cer et al, Nucleic Acids Res, 2009, Jul. 1; 37 (WebServer issue): W441-W445.

MOLT-4 cells = experiment: MOLT-4 cell viability using MTT assay; type: cell-based; conditions: 48 h exposure
Description: MTT colorimetric assay is based on the mitochondrial reduction of tetrazolium salt by living cells.
Cells were cultured at 37° C. in a humidified atmosphere containing 5% CO2. […] At the end of incubation time, 15 μL of MTT solution (5 mg/ml) were added per well and the cells were incubated for another 4 h. […] IC50s were calculated using standard four-parametric curve fitting.

His-His-(EK)-hsBCLXL(2-197)[N197C], sequence (Q07817 2-197 N197C): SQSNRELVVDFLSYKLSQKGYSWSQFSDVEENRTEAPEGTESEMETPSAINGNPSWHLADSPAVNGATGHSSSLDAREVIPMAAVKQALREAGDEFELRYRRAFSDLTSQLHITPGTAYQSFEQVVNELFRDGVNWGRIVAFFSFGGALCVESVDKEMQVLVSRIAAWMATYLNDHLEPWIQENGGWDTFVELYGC

| Structure (SMILES) | Ki [1] [nM] | IC50 (MOLT-4 cells; Homo sapiens, MOLT-4, 48 h) [nM] | IC50 (MOLT-4 cells) [nM] |
| --- | --- | --- | --- |
| Cc1c(Nc2nc3ccccc3s2)nnc2c1CCCN2c1nc(C(=O)O)c(CCCOc2ccc(I)cc2F)s1 [Example 77, 2-[3-(1,3-Benzothiazol-2-ylamino)-4-methyl-6,7-dihydro-5H-pyrido[2,3-c]pyridazin-8-yl]-5-[3-(2-fluoro-4-iodo-phenoxy)propyl]thiazole-4-carboxylic acid] | 0.17 | 226 | – |
| CNC(C)(C)C#Cc1ccc(OCCCc2sc(N3CCCc4c3nnc(Nc3nc5ccccc5s3)c4C)nc2C(=O)O)c(F)c1 [Example 91, 2-[3-(1,3-Benzothiazol-2-ylamino)-4-methyl-6,7-dihydro-5H-pyrido[2,3-c]pyridazin-8-yl]-5-[3-[2-fluoro-4-[3-methyl-3-(methylamino)but-1-ynyl]phenoxy]propyl]thiazole-4-carboxylic acid] | 0.0057 | 0.359 | – |
| CC(=O)N(C)CC#Cc1ccc(OCCCc2sc(N3CCCc4c3nnc(Nc3nc5ccccc5s3)c4C)nc2C(=O)O)c(F)c1 [Example 139, 5-[3-[4-[3-[acetyl(methyl)amino]prop-1-ynyl]-2-fluoro-phenoxy]propyl]-2-[3-(1,3-benzothiazol-2-ylamino)-4-methyl-6,7-dihydro-5H-pyrido[2,3-c]pyridazin-8-yl]thiazole-4-carboxylic acid] | 0.02 | 0.995 | – |
| Cc1c(Nc2nc3ccccc3s2)nnc2c1CCCN2c1ccc(-c2cnn(CC34CC5(C)CC(C)(CC(CCCN6CCCC6)(C5)C3)C4)c2C)c(C(=O)O)n1 [Example 166, 6-[3-(1,3-benzothiazol-2-ylamino)-4-methyl-6,7-dihydro-5H-pyrido[2,3-c]pyridazin-8-yl]-3-[1-[[3,5-dimethyl-7-(3-pyrrolidin-1-ylpropyl)-1-adamantyl]methyl]-5-methyl-pyrazol-4-yl]pyridine-2-carboxylic acid] | 0.0027 | 0.429 | – |
| CNCC#Cc1ccc(OCCCc2sc(N3CCCc4c3nnc(Nc3nc5ccccc5s3)c4C)nc2C(=O)O)cc1 [Example 80, 2-[3-(1,3-Benzothiazol-2-ylamino)-4-methyl-6,7-dihydro-5H-pyrido[2,3-c]pyridazin-8-yl]-5-[3-[4-[3-(methylamino)prop-1-ynyl]phenoxy]propyl]thiazole-4-carboxylic acid] | 0.0065 | 0.575 | – |
| Cc1c(Nc2nc3ccccc3s2)nnc2c1CCCN2c1nc(C(=O)O)c(CCCOc2ccc(C#CCNCCCO)cc2F)s1 [Example 147, 2-[3-(1,3-benzothiazol-2-ylamino)-4-methyl-6,7-dihydro-5H-pyrido[2,3-c]pyridazin-8-yl]-5-[3-[2-fluoro-4-[3-(3-hydroxypropylamino)prop-1-ynyl]phenoxy]propyl]thiazole-4-carboxylic acid] | 0.0046 | 0.852 | – |
| Cc1c(Nc2nc3ccccc3s2)nnc2c1CCCN2c1ccc(-c2cnn(CC34CC5(C)CC(C)(C3)CC(OCCN3CCOCC3)(C5)C4)c2C)c(C(=O)O)n1 [Example 142, 6-[3-(1,3-benzothiazol-2-ylamino)-4-methyl-6,7-dihydro-5H-pyrido[2,3-c]pyridazin-8-yl]-3-[1-[[3,5-dimethyl-7-(2-morpholinoethoxy)-1-adamantyl]methyl]-5-methyl-pyrazol-4-yl]pyridine-2-carboxylic acid] | 0.0026 | 0.0513 | – |
| CCN(CC)CC#Cc1ccc(OCCCc2sc(N3CCCc4c3nnc(Nc3nc5ccccc5s3)c4C)nc2C(=O)O)c(F)c1 [Example 85, 2-[3-(1,3-Benzothiazol-2-ylamino)-4-methyl-6,7-dihydro-5H-pyrido[2,3-c]pyridazin-8-yl]-5-[3-[4-[3-(diethylamino)prop-1-ynyl]-2-fluoro-phenoxy]propyl]thiazole-4-carboxylic acid] | 0.044 | 0.416 | – |
| Cc1c(Nc2nc3ccccc3s2)nnc2c1CCCN2c1nc(C(=O)O)c(CCCOc2ccc(C#CCN(CC[C@H](O)CO)CC[C@H](O)CO)cc2F)s1 [Example 125, 2-{3-[(1,3-benzothiazol-2-yl)amino]-4-methyl-6,7-dihydro-5H-pyrido[2,3-c]pyridazin-8-yl}-5-{3-[4-(3-{bis[(3S)-3,4-dihydroxybutyl]amino}prop-1-yn-1-yl)-2-fluorophenoxy]propyl}-1,3-thiazole-4-carboxylic acid] | 0.0067 | 9.53 | – |

Stronger by Ki [1], values ahead:

| Ki [1] [nM] | IC50 (MOLT-4 cells; Homo sapiens, MOLT-4, 48 h) [nM] | IC50 (MOLT-4 cells) [nM] | Structure (SMILES) |
| --- | --- | --- | --- |
| 0.0023 | 1.94 | – | Cc1c(Nc2nc3ccccc3s2)nnc2c1CCCN2c1ccc(-c2cnn(CC34CC5(C)CC(C)(C3)CC(OCCN(C)CC[C@@H](O)CO)(C5)C4)c2C)c(C(=O)O)n1 [Example 130, 6-[3-(1,3-benzothiazol-2-ylamino)-4-methyl-6,7-dihydro-5H-pyrido[2,3-c]pyridazin-8-yl]-3-[1-[[3-[2-[[(3R)-3,4-dihydroxybutyl]-methyl-amino]ethoxy]-5,7-dimethyl-1-adamantyl]methyl]-5-methyl-pyrazol-4-yl]pyridine-2-carboxylic acid] |
| 0.002 | 1.32 | – | Cc1c(Nc2nc3ccccc3s2)nnc2c1CCCN2c1ccc(-c2cnn(CC34CC5(C)CC(C)(C3)CC(OCCNCCCCO)(C5)C4)c2C)c(C(=O)O)n1 [Example 132, 6-[3-(1,3-benzothiazol-2-ylamino)-4-methyl-6,7-dihydro-5H-pyrido[2,3-c]pyridazin-8-yl]-3-[1-[[3-[2-(4-hydroxybutylamino)ethoxy]-5,7-dimethyl-1-adamantyl]methyl]-5-methyl-pyrazol-4-yl]pyridine-2-carboxylic acid] |
| 0.0015 | 0.616 | – | CNCCOC12CC3(C)CC(C)(CC(Cn4ncc(-c5ccc(N6CCCc7c6nnc(Nc6nc8ccccc8s6)c7C)nc5C(=O)O)c4C)(C3)C1)C2 [Example 94, 6-{3-[(1,3-benzothiazol-2-yl)amino]-4-methyl-6,7-dihydropyrido[2,3-c]pyridazin-8(5H)-yl}-3-[1-({3,5-dimethyl-7-[2-(methylamino)ethoxy]adamantan-1-yl}methyl)-5-methyl-1H-pyrazol-4-yl]pyridine-2-carboxylic acid] |
| 0.0018 | 0.265 | – | Cc1c(Nc2nc3ccccc3s2)nnc2c1CCCN2c1ccc(-c2cnn(CC34CC5(C)CC(C)(C3)CC(OCCN3CCCCCC3)(C5)C4)c2C)c(C(=O)O)n1 [Example 145, 3-[1-[[3-[2-(azepan-1-yl)ethoxy]-5,7-dimethyl-1-adamantyl]methyl]-5-methyl-pyrazol-4-yl]-6-[3-(1,3-benzothiazol-2-ylamino)-4-methyl-6,7-dihydro-5H-pyrido[2,3-c]pyridazin-8-yl]pyridine-2-carboxylic acid] |
| 0.0022 | 8.27 | – | Cc1c(Nc2nc3ccccc3s2)nnc2c1CCCN2c1ccc(-c2cnn(CC34CC5(C)CC(C)(C3)CC(OCCNCCS(=O)(=O)O)(C5)C4)c2C)c(C(=O)O)n1 [Example 96, 6-{3-[(1,3-benzothiazol-2-yl)amino]-4-methyl-6,7-dihydropyrido[2,3-c]pyridazin-8(5H)-yl}-3-{1-[(3,5-dimethyl-7-{2-[(2-sulfoethyl)amino]ethoxy}adamantan-1-yl)methyl]-5-methyl-1H-pyrazol-4-yl}pyridine-2-carboxylic acid] |
| 0.0015 | 0.0824 | – | COCCCN(C)CCOC12CC3(C)CC(C)(CC(Cn4ncc(-c5ccc(N6CCCc7c6nnc(Nc6nc8ccccc8s6)c7C)nc5C(=O)O)c4C)(C3)C1)C2 [Example 151, 6-[3-(1,3-benzothiazol-2-ylamino)-4-methyl-6,7-dihydro-5H-pyrido[2,3-c]pyridazin-8-yl]-3-[1-[[3-[2-[3-methoxypropyl(methyl)amino]ethoxy]-5,7-dimethyl-1-adamantyl]methyl]-5-methyl-pyrazol-4-yl]pyridine-2-carboxylic acid] |
| 0.0024 | – | 14.2 | Cc1c(Nc2nc3ccccc3s2)nnc2c1CCCN2c1ccc(-c2cnn(CC34CC5(C)CC(C)(C3)CC(OCCNCC[C@@H](O)CO)(C5)C4)c2C)c(C(=O)O)n1 [Example 93, 6-{3-[(1,3-benzothiazol-2-yl)amino]-4-methyl-6,7-dihydropyrido[2,3-c]pyridazin-8(5H)-yl}-3-(1-{[3-(2-{[(3R)-3,4-dihydroxybutyl]amino}ethoxy)-5,7-dimethyladamantan-1-yl]methyl}-5-methyl-1H-pyrazol-4-yl)pyridine-2-carboxylic acid] |
| 0.0022 | 0.641 | – | Cc1c(Nc2nc3cccc(F)c3s2)nnc2c1CCCN2c1ccc(-c2cnn(CC34CC5(C)CC(C)(C3)CC(OCCN3CCCC3)(C5)C4)c2C)c(C(=O)O)n1 [Example 178, 3-[1-[[3,5-dimethyl-7-(2-pyrrolidin-1-ylethoxy)-1-adamantyl]methyl]-5-methyl-pyrazol-4-yl]-6-[3-[(7-fluoro-1,3-benzothiazol-2-yl)amino]-4-methyl-6,7-dihydro-5H-pyrido[2,3-c]pyridazin-8-yl]pyridine-2-carboxylic acid] |
